Reference: patent US20180252700A1, “SCREENING AGENTS IN DRY EYE DISEASE” (Ora, Inc., priority 2016, published 2018)

Target: T1, TRPM8 (Homo sapiens, UniProt Q7Z2W7)
T1 construct: cold receptors express TRPM8 channels, which are sensitive to innocuous cooling; from tissue; host or cells: eye (corneal cold thermoreceptor nerve endings) of living human subjects
Assay: Menthol vs placebo symptom response on 0-10 Cooling Scale, escalating menthol concentrations (Example 1)
Type: in vivo
Conditions: for Is Menthol symptom response significantly higher than placebo? (TSS): Wilcox signed rank test, 95% confidence; for Duration of symptoms (furthest time point post-dose with symptom score higher than 0), mean: average of all concentrations
Protocol: 6 Healthy and 4 Dry Eye individuals participated in a 2-day internal pilot study. Each participant underwent randomized eye, contralateral, 15 μl pipette-instilled dosing of menthol and placebo (Sterile PBS, pH 7.2), across an escalating range of Menthol concentrations. The following dilutions (USP-grade L-Menthol in Sterile PBS, pH 7.2) were initially tested, in the following order (concentrations are w/v):
Post dose, a 0-10 Cooling Scale questionnaire, where 0 represents “No cooling sensation”, and 10 denotes “Maximum cooling sensation”, was asked at the following time points (OD, OS separate; OD represents your right eye and OS represents your left eye): Upon instillation, 30 seconds, 1 minute, 2 minutes, 3 minutes, and 4 minutes—post dose. At least 45 minutes was allowed between each successive dosing to allow for re-sensitization of TRPM8, as well as to allow any analgesic effects of μ-opioid activity to diminish. At the beginning of Visit 1, symptom questionnaires and Ocular Surface Disease Index (OSDI) were asked. After all concentrations of menthol had been tested, Fluorescein staining and Anesthetized Schirmer's test were performed (1 hour washout). The Schirmer test, first described in 1903 by Schirmer, is still the method most commonly used to evaluate aqueous tear production (Schirmer Graefes Arch Clin Exp Ophthalmol. 1903; 56:197-291,1903).
The primary parameter used was Total Symptom Sum, or TSS (sum of all time points), in active eye vs placebo eye. The secondary parameter used was “Upon instillation” Cooling score. FIG. 1 illustrates a frequency distribution of all symptom scores, based on a histogram of the data. […] As such, nonparametric statistical analysis was used to determine if differences exist between treatments (menthol vs placebo). In the following results, a Wilcox Signed Rank test was employed to test the null hypothesis that Menthol and Placebo elicit statistically similar symptom scores on the Cooling Scale. If TTest Stat<TCritical Value. If so, then the null hypothesis can be rejected with 95% confidence.
All concentrations tested are shown in Table 2, below, along with statistical significance indicated for either group according to a Wilcox Signed Rank Test (Total Symptom Sum, Menthol vs Placebo): […]

[1] = Dry Eye Population, Menthol 0.000050 (w/v)
[2] = Dry Eye Population, Menthol 0.000075 (w/v)
[3] = Dry Eye Population, Menthol 0.0001 (w/v)
[4] = Dry Eye Population, Menthol 0.001 (w/v)
[5] = Healthy Population, Menthol 0.001 (w/v)

T1 sequence (Q7Z2W7 whole entry): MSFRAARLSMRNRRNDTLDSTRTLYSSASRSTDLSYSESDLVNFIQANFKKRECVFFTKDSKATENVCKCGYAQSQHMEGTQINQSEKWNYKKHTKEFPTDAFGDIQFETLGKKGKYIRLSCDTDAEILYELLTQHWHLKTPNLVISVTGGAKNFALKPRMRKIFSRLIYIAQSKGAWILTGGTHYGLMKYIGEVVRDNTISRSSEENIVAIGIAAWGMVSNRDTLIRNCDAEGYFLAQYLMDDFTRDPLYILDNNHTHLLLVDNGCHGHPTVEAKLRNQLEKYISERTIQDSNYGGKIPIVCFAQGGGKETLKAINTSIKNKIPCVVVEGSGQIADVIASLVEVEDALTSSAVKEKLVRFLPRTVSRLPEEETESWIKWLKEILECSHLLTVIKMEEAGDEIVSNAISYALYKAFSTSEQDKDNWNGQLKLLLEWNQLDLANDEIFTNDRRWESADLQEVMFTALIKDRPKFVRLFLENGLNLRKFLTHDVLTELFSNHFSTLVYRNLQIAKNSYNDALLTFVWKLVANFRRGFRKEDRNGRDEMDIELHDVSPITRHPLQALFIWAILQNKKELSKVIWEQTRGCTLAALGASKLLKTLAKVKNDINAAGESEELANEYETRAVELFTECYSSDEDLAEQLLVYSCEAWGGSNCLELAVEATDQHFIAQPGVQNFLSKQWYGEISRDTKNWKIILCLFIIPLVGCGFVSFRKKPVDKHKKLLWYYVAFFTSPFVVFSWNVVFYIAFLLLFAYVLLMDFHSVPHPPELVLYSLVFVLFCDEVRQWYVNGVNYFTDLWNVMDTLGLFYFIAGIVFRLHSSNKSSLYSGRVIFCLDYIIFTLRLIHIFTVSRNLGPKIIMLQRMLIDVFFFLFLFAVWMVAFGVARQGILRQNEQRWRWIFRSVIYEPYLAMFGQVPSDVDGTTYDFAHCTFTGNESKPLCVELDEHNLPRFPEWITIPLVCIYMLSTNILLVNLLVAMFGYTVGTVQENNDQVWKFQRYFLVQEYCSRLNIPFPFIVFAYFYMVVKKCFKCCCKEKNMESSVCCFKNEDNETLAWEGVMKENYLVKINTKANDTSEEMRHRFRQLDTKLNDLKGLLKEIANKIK

CC(C)[C@@H]1CC[C@@H](C)C[C@H]1O [Menthol, L-Menthol]
% of population that had significantly higher menthol TSS than placebo TSS (Dry Eye Population, Menthol 0.000001 (w/v)): 0% | % of population that had significantly higher menthol TSS than placebo TSS (Dry Eye Population, Menthol 0.00001 (w/v)): 0% | % of population that had significantly higher menthol TSS than placebo TSS (Dry Eye Population, Menthol 0.000025 (w/v)): 0% | % of population that had significantly higher menthol TSS than placebo TSS [1]: 75% | Is Menthol symptom response significantly higher than placebo? (TSS) [1]: YES | % of population that had significantly higher menthol TSS than placebo TSS [2]: 25% | Is Menthol symptom response significantly higher than placebo? (TSS) [2]: YES | % of population that had significantly higher menthol TSS than placebo TSS [3]: 25% | Is Menthol symptom response significantly higher than placebo? (TSS) [3]: YES | % of population that had significantly higher menthol TSS than placebo TSS [4]: 75% | Is Menthol symptom response significantly higher than placebo? (TSS) [4]: YES | Duration of symptoms (furthest time point post-dose with symptom score higher than 0), mean (Dry Eye, p=0.004 vs Normal): 2.58 min | % of population that had significantly higher menthol TSS than placebo TSS (Healthy Population, Menthol 0.000001 (w/v)): 0% | % of population that had significantly higher menthol TSS than placebo TSS (Healthy Population, Menthol 0.00001 (w/v)): 0% | % of population that had significantly higher menthol TSS than placebo TSS (Healthy Population, Menthol 0.000025 (w/v)): 0% | % of population that had significantly higher menthol TSS than placebo TSS (Healthy Population, Menthol 0.000050 (w/v)): 16% | % of population that had significantly higher menthol TSS than placebo TSS (Healthy Population, Menthol 0.000075 (w/v)): 16% | % of population that had significantly higher menthol TSS than placebo TSS (Healthy Population, Menthol 0.0001 (w/v)): 0% | % of population that had significantly higher menthol TSS than placebo TSS [5]: 50% | Is Menthol symptom response significantly higher than placebo? (TSS) [5]: YES | Correlation score between Menthol TSS and 4-Symptom Questionnaire (Menthol 0.001%): 0.64 | Correlation score between Menthol TSS and Fluorescein Staining (Corneal) (Menthol 0.001%): 0.50 | Correlation score between Menthol TSS and OSDI (Menthol 0.001%): 0.79 | Menthol TSS, Dry Eye vs Normal (Menthol 0.001%): significantly higher than Normal | Duration of symptoms (furthest time point post-dose with symptom score higher than 0), mean (Normal): 1.57 min | "Upon Instillation" menthol symptom response, Normal vs Dry Eye (any concentrations tested, FIG. 3): No significant differences | Symptom response to menthol (TSS), dry eye subjects vs normal (concentrations of 0.0001% and up, FIG. 2): significantly higher in dry eye subjects | Lower concentration at which Dry Eye population can differentiate Menthol from Placebo compared with Normal (from Table 2): 50 fold
